Laboratory results as given in PMC2213614 (The Journal of Cell Biology, 2008).

Target: Sec3N (GST-Sec3N, N terminus of Sec3, aa 1-320) (Saccharomyces cerevisiae, UniProt P33332)
Format: binding
Conditions: 25°C

Sequence of Sec3N (GST-Sec3N, N terminus of Sec3, aa 1-320) (P33332 1-320 limits assumed): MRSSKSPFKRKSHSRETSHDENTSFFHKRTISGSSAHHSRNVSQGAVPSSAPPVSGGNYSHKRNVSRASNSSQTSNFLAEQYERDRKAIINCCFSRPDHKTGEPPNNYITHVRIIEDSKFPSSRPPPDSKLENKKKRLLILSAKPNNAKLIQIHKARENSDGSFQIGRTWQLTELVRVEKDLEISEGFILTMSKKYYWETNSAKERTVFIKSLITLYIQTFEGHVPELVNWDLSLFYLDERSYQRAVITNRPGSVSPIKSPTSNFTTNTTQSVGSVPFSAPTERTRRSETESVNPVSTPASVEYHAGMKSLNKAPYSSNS

phosphatidylinositol 4,5-bisphosphate gave a Kd of 14.4 ± 4 µM.
